# Assay results: patent US8802597B2, “Herbicidal pyrimidines” (E I du Pont de Nemours and Company, priority 2003, dated 2014)
# Where two headings read alike, the source gives them in different places.
# What was measured:
# Assay in all cases: Test C pre/postemergence
# Assay type in all cases: in vivo
# [1] = tested on: giant foxtail (Setaria faberii); conditions: for pest or weed control at 125 g/ha / pest or weed control at 500 g/ha / pest or weed control at 62 g/ha / pest or weed control at 250 g/ha: Setaria faberi
# Description: (§1) Seeds or nutlets of plant species selected from bermudagrass (Cynodon dactylon), Surinam grass (Brachiaria decumbens), cocklebur (Xanthium strumarium), corn (Zea mays), crabgrass (Digitaria sanguinalis), woolly cupgrass (Eriochloa villosa), giant foxtail (Setaria faberii), goosegrass (Eleusine indica), johnsongrass (Sorghum halepense), kochia (Kochia scoparia), lambsquarters (Chenopodium album), morningglory (Ipomoea coccinea), eastern black nightshade (Solanum ptycanthum), yellow nutsedge (Cyperus esculentus), pigweed (Amaranthus retroflexus), common ragweed (Ambrosia elatior), soybean (Glycine max), common (oilseed) sunflower (Helianthus annuus), and velvetleaf (Abutilon theophrasti) were planted and treated preemergence with test chemicals formulated in a non-phytotoxic solvent mixture which included a surfactant.
# (§2) At the same time, plants selected from these crop and weed species and also winter barley (Hordeum vulgare), blackgrass (Alopecurus myosuroides), canarygrass (Phalaris minor), chickweed (Stellaria media), downy brome (Bromus tectorum), green foxtail (Setaria viridis), Italian ryegrass (Lolium multiflorum), wheat (Triticum aestivum), wild oat (Avena fatua) and windgrass (Apera spica-venti) were treated with postemergence applications of some of the test chemicals formulated in the same manner. Plants ranged in height from 2 to 18 cm (1- to 4-leaf stage) for postemergence treatments. Plant species in the flooded paddy test consisted of rice (Oryza sativa), umbrella sedge (Cyperus difformis), duck salad (Heteranthera limosa) and barnyardgrass (Echinochloa crus-galli) grown to the 2-leaf stage for testing. Treated plants and controls were maintained in a greenhouse for 12 to 14 days, after which time all species were compared to controls and visually evaluated. Plant response ratings, summarized in Table C, are based on a scale of 0 to 100 where 0 is no effect and 100 is complete control. A dash (-) response means no test result.
# [2] = tested on: bermudagrass (Cynodon dactylon); conditions: for pest or weed control at 62 g/ha / pest or weed control at 125 g/ha / pest or weed control at 250 g/ha / pest or weed control at 500 g/ha: Cynodon dactylon
# Description: as §1, §2
# [3] = tested on: johnsongrass (Sorghum halepense); conditions: for pest or weed control at 62 g/ha / pest or weed control at 125 g/ha / pest or weed control at 250 g/ha / pest or weed control at 500 g/ha: Sorghum halepense
# Description: as §1, §2
# [4] = tested on: soybean (Glycine max); conditions: for plant injury at 62 g/ha / plant injury at 125 g/ha / plant injury at 250 g/ha / plant injury at 500 g/ha: Glycine max
# Description: as §1, §2
# [5] = Postemergence, 62 g ai/ha, scale 0 to 100 (0 no effect, 100 complete control)
# [6] = Postemergence, 125 g ai/ha, scale 0 to 100 (0 no effect, 100 complete control)
# [7] = Postemergence, 250 g ai/ha, scale 0 to 100
# [8] = Postemergence, 500 g ai/ha, scale 0 to 100
# [9] = Preemergence, 62 g ai/ha, scale 0 to 100, 0 no effect, 100 complete control
# [10] = Preemergence, 125 g ai/ha, scale 0 to 100
# [11] = Preemergence, 250 g ai/ha, scale 0 to 100
# [12] = Preemergence, 500 g ai/ha, scale 0 to 100
smiles,measurement,setting,value
CNc1nc(C2CC2)nc(C(=O)OC)c1Br [Compound 5],pest or weed control at 125 g/ha,"[1]; post-emergence, Postemergence, 125 g ai/ha, scale 0 to 100 (0 no effect, 100 complete control), read-out: Foxtail, Giant plant response rating",30%
same,pest or weed control at 500 g/ha,"[1]; post-emergence, Postemergence, 500 g ai/ha, scale 0 to 100, read-out: Plant response rating, Foxtail, Giant",60%
same,pest or weed control at 62 g/ha,"[1]; post-emergence, Postemergence, 62 g ai/ha, scale 0 to 100 (0 no effect, 100 complete control), read-out: Foxtail, Giant plant response rating",20%
same,pest or weed control at 250 g/ha,"[1]; post-emergence, Postemergence, 250 g ai/ha, scale 0 to 100, read-out: Plant response rating, Foxtail, Giant",50%
same,pest or weed control at 62 g/ha,"[1]; pre-emergence, Preemergence, 62 g ai/ha, scale 0 to 100, 0 no effect, 100 complete control, read-out: Plant response rating, Foxtail, Giant",0%
same,pest or weed control at 125 g/ha,"[1]; pre-emergence, Preemergence, 125 g ai/ha, scale 0 to 100, read-out: Plant response rating, Foxtail, Giant",0%
same,pest or weed control at 250 g/ha,"[1]; pre-emergence, Preemergence, 250 g ai/ha, scale 0 to 100, read-out: Plant response rating, Foxtail, Giant",10%
same,pest or weed control at 500 g/ha,"[1]; pre-emergence, Preemergence, 500 g ai/ha, scale 0 to 100, read-out: Plant response rating, Foxtail, Giant",60%
same,pest or weed control at 62 g/ha,"[2]; post-emergence, Postemergence, 62 g ai/ha, scale 0 to 100 (0 no effect, 100 complete control), read-out: Bermudagrass plant response rating",5%
same,pest or weed control at 125 g/ha,"[2]; post-emergence, Postemergence, 125 g ai/ha, scale 0 to 100, read-out: Plant response rating, Bermudagrass",50%
same,pest or weed control at 250 g/ha,"[2]; post-emergence, Postemergence, 250 g ai/ha, scale 0 to 100, read-out: Plant response rating, Bermudagrass",70%
same,pest or weed control at 500 g/ha,"[2]; post-emergence, Postemergence, 500 g ai/ha, scale 0 to 100, read-out: Plant response rating, Bermudagrass",80%
same,pest or weed control at 62 g/ha,"[2]; pre-emergence, Preemergence, 62 g ai/ha, scale 0 to 100, 0 no effect, 100 complete control, read-out: Plant response rating, Bermudagrass",0%
same,pest or weed control at 125 g/ha,"[2]; pre-emergence, Preemergence, 125 g ai/ha, scale 0 to 100, read-out: Plant response rating, Bermudagrass",0%
same,pest or weed control at 250 g/ha,"[2]; pre-emergence, Preemergence, 250 g ai/ha, scale 0 to 100, read-out: Plant response rating, Bermudagrass",30%
same,pest or weed control at 500 g/ha,"[2]; pre-emergence, Preemergence, 500 g ai/ha, scale 0 to 100, read-out: Plant response rating, Bermudagrass",70%
same,pest or weed control at 62 g/ha,"[3]; post-emergence, Postemergence, 62 g ai/ha, scale 0 to 100 (0 no effect, 100 complete control), read-out: Johnsongrass plant response rating",0%
same,pest or weed control at 125 g/ha,"[3]; post-emergence, Postemergence, 125 g ai/ha, scale 0 to 100 (0 no effect, 100 complete control), read-out: Johnsongrass plant response rating",40%
same,pest or weed control at 250 g/ha,"[3]; post-emergence, Postemergence, 250 g ai/ha, scale 0 to 100, read-out: Plant response rating, Johnsongrass",45%
same,pest or weed control at 500 g/ha,"[3]; post-emergence, Postemergence, 500 g ai/ha, scale 0 to 100, read-out: Plant response rating, Johnsongrass",45%
same,pest or weed control at 62 g/ha,"[3]; pre-emergence, Preemergence, 62 g ai/ha, scale 0 to 100, 0 no effect, 100 complete control, read-out: Plant response rating, Johnsongrass",5%
same,pest or weed control at 125 g/ha,"[3]; pre-emergence, Preemergence, 125 g ai/ha, scale 0 to 100, read-out: Plant response rating, Johnsongrass",20%
same,pest or weed control at 250 g/ha,"[3]; pre-emergence, Preemergence, 250 g ai/ha, scale 0 to 100, read-out: Plant response rating, Johnsongrass",60%
same,pest or weed control at 500 g/ha,"[3]; pre-emergence, Preemergence, 500 g ai/ha, scale 0 to 100, read-out: Plant response rating, Johnsongrass",70%
same,plant injury at 62 g/ha,"[4]; post-emergence, Postemergence, 62 g ai/ha, scale 0 to 100 (0 no effect, 100 complete control), read-out: Soybean plant response rating",95%
same,plant injury at 125 g/ha,"[4]; post-emergence, Postemergence, 125 g ai/ha, scale 0 to 100 (0 no effect, 100 complete control), read-out: Soybean plant response rating",100%
same,plant injury at 250 g/ha,"[4]; post-emergence, Postemergence, 250 g ai/ha, scale 0 to 100, read-out: Plant response rating, Soybean",100%
same,plant injury at 500 g/ha,"[4]; post-emergence, Postemergence, 500 g ai/ha, scale 0 to 100, read-out: Plant response rating, Soybean",100%
same,plant injury at 62 g/ha,"[4]; pre-emergence, Preemergence, 62 g ai/ha, scale 0 to 100, 0 no effect, 100 complete control, read-out: Plant response rating, Soybean",85%
same,plant injury at 125 g/ha,"[4]; pre-emergence, Preemergence, 125 g ai/ha, scale 0 to 100, read-out: Plant response rating, Soybean",90%
same,plant injury at 250 g/ha,"[4]; pre-emergence, Preemergence, 250 g ai/ha, scale 0 to 100, read-out: Plant response rating, Soybean",98%
same,plant injury at 500 g/ha,"[4]; pre-emergence, Preemergence, 500 g ai/ha, scale 0 to 100, read-out: Plant response rating, Soybean",100%
CCCOC(=O)c1nc(C2CC2)nc(N)c1Br [Compound 15],"Foxtail, Giant plant response rating",[1]; [5],45
same,"Foxtail, Giant plant response rating",[1]; [6],60
same,"Plant response rating, Foxtail, Giant",[1]; [7],65
same,"Plant response rating, Foxtail, Giant",[1]; [8],70
same,"Plant response rating, Foxtail, Giant",[1]; [9],0
same,"Plant response rating, Foxtail, Giant",[1]; [10],0
same,"Plant response rating, Foxtail, Giant",[1]; [11],65
same,"Plant response rating, Foxtail, Giant",[1]; [12],80
same,Bermudagrass plant response rating,[2]; [5],0
same,"Plant response rating, Bermudagrass",[2]; [7],65
same,"Plant response rating, Bermudagrass",[2]; [8],75
same,"Plant response rating, Bermudagrass","[2]; Postemergence, 125 g ai/ha, scale 0 to 100",45
same,"Plant response rating, Bermudagrass",[2]; [9],0
same,"Plant response rating, Bermudagrass",[2]; [10],0
same,"Plant response rating, Bermudagrass",[2]; [11],0
same,"Plant response rating, Bermudagrass",[2]; [12],70
same,Johnsongrass plant response rating,[3]; [5],20
same,Johnsongrass plant response rating,[3]; [6],55
same,"Plant response rating, Johnsongrass",[3]; [7],70
same,"Plant response rating, Johnsongrass",[3]; [8],80
same,"Plant response rating, Johnsongrass",[3]; [9],20
same,"Plant response rating, Johnsongrass",[3]; [10],65
same,"Plant response rating, Johnsongrass",[3]; [11],75
same,"Plant response rating, Johnsongrass",[3]; [12],95
same,Soybean plant response rating,[4]; [5],95
same,Soybean plant response rating,[4]; [6],95
same,"Plant response rating, Soybean",[4]; [7],95
same,"Plant response rating, Soybean",[4]; [8],100
same,"Plant response rating, Soybean",[4]; [9],75
same,"Plant response rating, Soybean",[4]; [10],90
same,"Plant response rating, Soybean",[4]; [11],95
same,"Plant response rating, Soybean",[4]; [12],100
